Source: patent US20240246942A1, “KINASE INHIBITORS FOR THE TREATMENT OF NEURODEGENERATIVE DISEASES” (priority 2020, published 2024)

Tests used:
Experiment in all cases: biochemical
[1] = target: T1, panel of 374 wild-type kinases (Homo sapiens, UniProt Q04759); conditions: read-out: % Enzyme Activity (relative to DMSO controls), kinase PKCtheta
T1 construct: purchased Reaction Biology Corporation

[2] = target: T2, panel of 374 wild-type kinases (Homo sapiens, UniProt P17252); conditions: read-out: % Enzyme Activity (relative to DMSO controls), kinase PKCa
T2 construct: purchased Reaction Biology Corporation

[3] = target: T3, panel of 374 wild-type kinases (Homo sapiens, UniProt Q5VT25); conditions: read-out: % Enzyme Activity (relative to DMSO controls), MRCKa/CDC42BPA
T3 construct: purchased Reaction Biology Corporation
T3 sequence (Q5VT25 whole entry): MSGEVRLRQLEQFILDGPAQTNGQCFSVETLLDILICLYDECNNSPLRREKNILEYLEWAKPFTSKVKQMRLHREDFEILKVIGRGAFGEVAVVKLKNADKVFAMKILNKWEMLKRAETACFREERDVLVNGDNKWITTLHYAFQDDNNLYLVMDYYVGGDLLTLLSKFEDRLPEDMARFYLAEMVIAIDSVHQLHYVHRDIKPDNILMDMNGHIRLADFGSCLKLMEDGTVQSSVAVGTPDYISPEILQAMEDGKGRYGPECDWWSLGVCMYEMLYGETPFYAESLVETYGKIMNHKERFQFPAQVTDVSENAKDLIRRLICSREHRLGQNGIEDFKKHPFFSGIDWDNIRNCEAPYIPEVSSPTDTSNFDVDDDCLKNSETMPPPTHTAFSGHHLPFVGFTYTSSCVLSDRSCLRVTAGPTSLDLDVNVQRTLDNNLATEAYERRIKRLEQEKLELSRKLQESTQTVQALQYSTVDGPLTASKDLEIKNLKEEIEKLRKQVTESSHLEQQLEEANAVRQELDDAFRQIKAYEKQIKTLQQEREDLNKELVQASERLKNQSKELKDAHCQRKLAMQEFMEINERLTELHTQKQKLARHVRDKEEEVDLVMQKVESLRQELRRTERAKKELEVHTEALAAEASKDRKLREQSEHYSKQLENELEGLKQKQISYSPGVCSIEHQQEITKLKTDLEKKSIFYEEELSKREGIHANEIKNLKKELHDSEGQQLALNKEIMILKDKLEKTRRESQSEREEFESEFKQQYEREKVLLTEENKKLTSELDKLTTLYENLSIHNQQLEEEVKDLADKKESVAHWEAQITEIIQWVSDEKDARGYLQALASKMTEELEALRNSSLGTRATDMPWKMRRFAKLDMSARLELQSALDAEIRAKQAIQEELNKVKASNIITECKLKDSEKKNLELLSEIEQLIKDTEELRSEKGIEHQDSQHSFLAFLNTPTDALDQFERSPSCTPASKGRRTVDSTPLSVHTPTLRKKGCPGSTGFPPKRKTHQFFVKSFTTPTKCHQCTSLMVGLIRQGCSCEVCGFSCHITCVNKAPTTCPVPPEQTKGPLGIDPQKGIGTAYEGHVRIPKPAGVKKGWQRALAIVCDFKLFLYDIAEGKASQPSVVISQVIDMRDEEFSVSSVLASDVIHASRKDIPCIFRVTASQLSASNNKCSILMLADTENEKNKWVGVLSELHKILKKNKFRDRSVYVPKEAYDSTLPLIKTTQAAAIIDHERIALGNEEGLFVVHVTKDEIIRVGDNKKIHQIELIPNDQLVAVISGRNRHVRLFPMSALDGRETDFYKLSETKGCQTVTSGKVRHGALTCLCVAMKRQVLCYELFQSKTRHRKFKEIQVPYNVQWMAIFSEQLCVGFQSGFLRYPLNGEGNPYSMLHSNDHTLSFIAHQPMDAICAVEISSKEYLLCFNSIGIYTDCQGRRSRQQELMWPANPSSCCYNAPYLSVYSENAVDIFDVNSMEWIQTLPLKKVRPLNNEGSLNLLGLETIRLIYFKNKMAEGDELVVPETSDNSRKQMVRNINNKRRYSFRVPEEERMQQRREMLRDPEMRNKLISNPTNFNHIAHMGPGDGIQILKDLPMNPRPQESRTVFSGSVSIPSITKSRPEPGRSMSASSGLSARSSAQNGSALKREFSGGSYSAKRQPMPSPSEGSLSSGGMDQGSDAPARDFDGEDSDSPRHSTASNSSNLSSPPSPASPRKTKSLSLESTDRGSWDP

[4] = target: T4, panel of 374 wild-type kinases (Homo sapiens, UniProt P21802); conditions: read-out: % Enzyme Activity (relative to DMSO controls), FGFR2
T4 construct: purchased Reaction Biology Corporation
T4 sequence (P21802 22-821): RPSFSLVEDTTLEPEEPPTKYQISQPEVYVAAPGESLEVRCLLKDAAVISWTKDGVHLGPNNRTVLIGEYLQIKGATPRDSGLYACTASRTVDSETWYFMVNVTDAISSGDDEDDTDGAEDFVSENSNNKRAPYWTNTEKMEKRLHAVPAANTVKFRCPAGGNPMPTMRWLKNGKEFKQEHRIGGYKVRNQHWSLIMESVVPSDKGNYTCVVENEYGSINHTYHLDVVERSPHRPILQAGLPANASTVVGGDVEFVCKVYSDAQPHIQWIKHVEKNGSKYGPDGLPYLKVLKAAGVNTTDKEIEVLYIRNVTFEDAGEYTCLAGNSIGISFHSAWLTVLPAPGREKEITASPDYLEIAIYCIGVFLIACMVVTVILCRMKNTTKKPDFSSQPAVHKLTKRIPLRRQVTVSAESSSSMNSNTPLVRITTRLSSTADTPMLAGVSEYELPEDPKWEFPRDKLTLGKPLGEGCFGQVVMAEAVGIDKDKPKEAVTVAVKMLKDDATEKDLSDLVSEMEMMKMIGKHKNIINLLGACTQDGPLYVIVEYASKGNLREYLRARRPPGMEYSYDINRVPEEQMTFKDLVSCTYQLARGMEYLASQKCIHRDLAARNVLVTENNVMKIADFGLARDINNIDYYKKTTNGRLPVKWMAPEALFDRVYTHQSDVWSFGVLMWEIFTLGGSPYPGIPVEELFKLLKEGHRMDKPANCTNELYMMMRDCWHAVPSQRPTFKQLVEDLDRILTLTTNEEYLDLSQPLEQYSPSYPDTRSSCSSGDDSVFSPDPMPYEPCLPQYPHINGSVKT

[5] = target: T5, panel of 374 wild-type kinases (Homo sapiens, UniProt Q8NE63); conditions: read-out: % Enzyme Activity (relative to DMSO controls), HIPK4
T5 construct: purchased Reaction Biology Corporation
T5 sequence (Q8NE63 1-616): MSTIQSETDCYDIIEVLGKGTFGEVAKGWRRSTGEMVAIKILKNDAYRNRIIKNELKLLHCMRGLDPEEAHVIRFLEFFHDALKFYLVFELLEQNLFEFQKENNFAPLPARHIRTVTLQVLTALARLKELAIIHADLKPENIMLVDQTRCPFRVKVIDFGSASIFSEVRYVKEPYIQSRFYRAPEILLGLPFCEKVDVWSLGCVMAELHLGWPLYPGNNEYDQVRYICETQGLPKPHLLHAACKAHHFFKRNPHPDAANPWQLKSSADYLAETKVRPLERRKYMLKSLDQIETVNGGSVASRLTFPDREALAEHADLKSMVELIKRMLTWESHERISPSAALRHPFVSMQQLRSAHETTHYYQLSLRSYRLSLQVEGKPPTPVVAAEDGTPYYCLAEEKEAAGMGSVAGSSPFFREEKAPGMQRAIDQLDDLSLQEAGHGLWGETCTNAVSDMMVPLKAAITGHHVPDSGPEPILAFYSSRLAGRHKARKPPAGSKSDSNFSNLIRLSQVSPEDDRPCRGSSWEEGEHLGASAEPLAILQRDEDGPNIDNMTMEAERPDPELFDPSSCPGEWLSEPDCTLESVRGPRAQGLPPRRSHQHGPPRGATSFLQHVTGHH

[6] = target: T6, panel of 374 wild-type kinases (Homo sapiens, UniProt Q8IYT8); conditions: read-out: % Enzyme Activity (relative to DMSO controls), kinase ULK2
T6 construct: purchased Reaction Biology Corporation
T6 sequence (Q8IYT8 1-1036): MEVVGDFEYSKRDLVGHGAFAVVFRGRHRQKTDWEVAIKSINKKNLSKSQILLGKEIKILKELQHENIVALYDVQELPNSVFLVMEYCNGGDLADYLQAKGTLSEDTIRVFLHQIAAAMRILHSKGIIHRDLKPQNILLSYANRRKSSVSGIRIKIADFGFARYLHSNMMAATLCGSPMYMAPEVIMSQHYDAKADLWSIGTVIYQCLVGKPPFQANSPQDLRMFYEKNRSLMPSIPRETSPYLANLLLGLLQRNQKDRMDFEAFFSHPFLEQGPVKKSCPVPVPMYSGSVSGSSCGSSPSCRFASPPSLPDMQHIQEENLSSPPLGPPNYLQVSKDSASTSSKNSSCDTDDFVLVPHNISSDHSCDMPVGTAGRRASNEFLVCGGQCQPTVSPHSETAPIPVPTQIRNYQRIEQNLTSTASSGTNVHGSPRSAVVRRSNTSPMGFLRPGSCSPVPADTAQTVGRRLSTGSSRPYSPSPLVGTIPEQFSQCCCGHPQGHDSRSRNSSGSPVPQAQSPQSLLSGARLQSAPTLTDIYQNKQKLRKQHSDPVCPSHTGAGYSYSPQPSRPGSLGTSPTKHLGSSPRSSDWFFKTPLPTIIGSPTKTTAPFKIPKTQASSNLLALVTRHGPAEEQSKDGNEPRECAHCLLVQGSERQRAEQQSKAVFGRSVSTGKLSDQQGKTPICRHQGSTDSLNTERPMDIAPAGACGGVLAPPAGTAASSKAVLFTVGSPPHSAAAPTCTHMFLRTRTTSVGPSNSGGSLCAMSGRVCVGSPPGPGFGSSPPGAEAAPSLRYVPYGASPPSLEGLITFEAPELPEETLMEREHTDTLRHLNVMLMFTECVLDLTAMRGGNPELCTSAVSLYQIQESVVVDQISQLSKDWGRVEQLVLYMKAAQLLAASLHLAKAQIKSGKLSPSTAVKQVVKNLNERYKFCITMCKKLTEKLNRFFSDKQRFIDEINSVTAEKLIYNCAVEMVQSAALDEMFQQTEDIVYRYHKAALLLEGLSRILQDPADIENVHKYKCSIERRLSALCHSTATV

[7] = target: T7, panel of 374 wild-type kinases (Homo sapiens, UniProt Q14164); conditions: read-out: % Enzyme Activity (relative to DMSO controls), IKKe/IKBKE
T7 construct: purchased Reaction Biology Corporation
T7 sequence (Q14164 1-716): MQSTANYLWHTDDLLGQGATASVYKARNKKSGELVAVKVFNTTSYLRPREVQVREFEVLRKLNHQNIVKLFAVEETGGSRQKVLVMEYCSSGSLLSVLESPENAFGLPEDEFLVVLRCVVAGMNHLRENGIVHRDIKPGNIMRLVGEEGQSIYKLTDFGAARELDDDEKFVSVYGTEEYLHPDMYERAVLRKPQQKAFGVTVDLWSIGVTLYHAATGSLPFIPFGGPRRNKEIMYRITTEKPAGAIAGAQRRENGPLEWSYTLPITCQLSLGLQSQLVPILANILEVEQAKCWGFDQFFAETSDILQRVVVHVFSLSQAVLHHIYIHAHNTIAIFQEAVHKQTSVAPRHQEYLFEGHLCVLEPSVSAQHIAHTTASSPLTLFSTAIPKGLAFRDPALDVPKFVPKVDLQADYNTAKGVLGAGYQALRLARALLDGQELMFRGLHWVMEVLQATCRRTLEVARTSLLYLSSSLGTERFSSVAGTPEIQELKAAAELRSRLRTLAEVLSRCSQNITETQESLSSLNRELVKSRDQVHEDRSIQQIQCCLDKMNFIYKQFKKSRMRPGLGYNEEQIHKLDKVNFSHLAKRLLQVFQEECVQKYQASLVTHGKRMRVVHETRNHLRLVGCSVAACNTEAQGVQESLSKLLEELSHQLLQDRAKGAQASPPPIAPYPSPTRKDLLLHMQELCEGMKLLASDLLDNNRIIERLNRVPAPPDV

T1 sequence (Q04759 whole entry): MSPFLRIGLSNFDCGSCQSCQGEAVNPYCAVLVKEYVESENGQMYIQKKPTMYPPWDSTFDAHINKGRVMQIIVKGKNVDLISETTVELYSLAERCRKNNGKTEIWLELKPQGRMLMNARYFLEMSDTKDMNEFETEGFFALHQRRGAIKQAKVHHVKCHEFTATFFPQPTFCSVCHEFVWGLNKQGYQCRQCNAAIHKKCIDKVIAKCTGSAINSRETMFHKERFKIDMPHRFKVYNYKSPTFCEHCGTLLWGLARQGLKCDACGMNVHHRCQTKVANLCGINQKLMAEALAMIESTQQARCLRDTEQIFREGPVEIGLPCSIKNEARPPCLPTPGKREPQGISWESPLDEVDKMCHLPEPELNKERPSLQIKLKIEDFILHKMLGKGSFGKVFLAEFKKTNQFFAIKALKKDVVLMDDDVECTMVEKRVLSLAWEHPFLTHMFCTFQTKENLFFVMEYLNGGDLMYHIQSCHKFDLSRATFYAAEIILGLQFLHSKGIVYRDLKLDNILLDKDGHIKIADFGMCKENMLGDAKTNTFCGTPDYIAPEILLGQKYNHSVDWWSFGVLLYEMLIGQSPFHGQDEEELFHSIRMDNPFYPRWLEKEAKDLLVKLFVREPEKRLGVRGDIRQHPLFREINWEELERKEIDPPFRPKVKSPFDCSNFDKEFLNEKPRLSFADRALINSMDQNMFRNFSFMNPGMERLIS

Structure (SMILES): O=C(Nc1cnn(-c2csc(C(=O)NC3COC3)c2)c1)Nc1ccccc1Cl [Compound 17, 4-(4-(3-(2-chlorophenyl)ureido)-1H-pyrazol-1-yl)-N-(oxetan-3-yl)thiophene-2-carboxamide]
- remaining activity at 5 µM [1]: 114%
- remaining activity at 5 µM [2]: 101%
- remaining activity at 5 µM [3]: 99.3%
- remaining activity at 5 µM [4]: 95.6%
- remaining activity at 5 µM [5]: 100%
- remaining activity at 5 µM [6]: 196%
- remaining activity at 5 µM [7]: 110%

Structure (SMILES): Cc1sc(C(=O)NC2COC2)cc1-n1cc(NC(=O)Nc2c(F)cccc2Cl)cn1 [Compound 27, 4-(4-(3-(2-chloro-6-fluorophenyl)ureido)-1H-pyrazol-1-yl)-5-methyl-N-(oxetan-3-yl)thiophene-2-carboxamide]
- remaining activity at 10 µM ([1]; 10 uM): 96.9%
- remaining activity at 10 µM ([2]; 10 uM): 95.9%
- remaining activity at 10 µM ([3]; 10 uM): 104%
- remaining activity at 10 µM ([4]; 10 uM): 106%
- remaining activity at 10 µM ([5]; 10 uM): 98.4%
- remaining activity at 10 µM ([6]; 10 uM): 74.9%
- remaining activity at 10 µM ([7]; 10 uM): 116%

Structure (SMILES): O=C(Nc1cnn(-c2csc(C(=O)NC3COC3)c2)c1)Nc1c(F)cccc1Cl [Compound 25, 4-(4-(3-(2-chloro-6-fluorophenyl)ureido)-1H-pyrazol-1-yl)-N-(oxetan-3-yl)thiophene-2-carboxamide]
- remaining activity at 5 µM [1]: 94.7%
- remaining activity at 5 µM [2]: 90.7%
- remaining activity at 5 µM [3]: 99%
- remaining activity at 5 µM [4]: 103%
- remaining activity at 5 µM [5]: 111%
- remaining activity at 5 µM [6]: 105%
- remaining activity at 5 µM [7]: 96.8%
